# Patent US10377991B2, “Method of producing airway epithelial cells” (KYOTO UNIVERSITY, priority 2015, dated 2019)
# Test system: proximal airway epithelial progenitor cells induced from human iPS cells (201B7)
# Assay: Induction of differentiation into ciliated airway epithelial cells in Step 6 three-dimensional culture, qRT-PCR of FOXJ1, DNAHS and SNTN
# Assay type: cell-based
# Settings: 10 μM DAPT in medium for Step 6 from Day 42, read on Day 56; versus Step 6 medium without DAPT
# Experimental: On Day 42 (i.e., upon completion of Step 5), the medium in the lower layer of Cell Culture Inserts (Corning) was exchanged with the medium for Step 6, and the medium of the lower layer was selectively exchanged with another medium every other day.
# The medium for Step 6 was prepared by supplementing the Pneumacult-ALI Maintenance Medium (STEMCELL Technologies) with 10 μM Y-27632.
# On Day 6 (i.e., upon completion of Step 1), Day 14 (i.e., upon completion of Step 3), Day 28 (i.e., upon completion of Step 4), Day 42 (i.e., upon completion of Step 5), and Day 56 (i.e., upon completion of Step 6), expression levels of FOXJ1, DNAHS, and SNTN as marker genes specific to ciliated airway epithelial cells were analyzed via quantitative RT-PCR. Day 56 (+DAPT) represents the results of culture conducted in the medium for Step 6 supplemented with 10 μM DAPT from Day 42 (i.e., upon completion of Step 5). The measured values indicate the ratio of the cell expression levels to the amount of β-actin (AB) corrected with the expression levels in the human fetal trachea (F-trachea, 29-weeks pregnant, BioChain Institute).
smiles,measurement,value
"C[C@H](NC(=O)Cc1cc(F)cc(F)c1)C(=O)N[C@H](C(=O)OC(C)(C)C)c1ccccc1 [DAPT, N-[2S-(3,5-difluorophenyl)acetyl]-L-alanyl-2-phenyl-1,1-dimethylethyl ester-glycine]","differentiation into ciliated airway epithelial cells (expression of FOXJ1, DNAHS, SNTN by qRT-PCR)",further accelerated
